Calls of active or inactive are those of the source. For most assays here, no stated cut-off is given here; in the data, actives have a measured EC50 and inactives only a lower limit.
What was measured:
[1] = target: T1, Short transient receptor potential channel 4 (Mus musculus, UniProt Q9QUQ5); test: block of DAMGO-driven TRPC4 calcium entry – cell-based, HEK293 TRPC4/mu-opioid, Fluo-4 calcium, dose response (AID 434942); type: functional;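 further: potency of inhibitors blocking the TRPC4 calcium response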
T1 sequence (Q9QUQ5 whole entry): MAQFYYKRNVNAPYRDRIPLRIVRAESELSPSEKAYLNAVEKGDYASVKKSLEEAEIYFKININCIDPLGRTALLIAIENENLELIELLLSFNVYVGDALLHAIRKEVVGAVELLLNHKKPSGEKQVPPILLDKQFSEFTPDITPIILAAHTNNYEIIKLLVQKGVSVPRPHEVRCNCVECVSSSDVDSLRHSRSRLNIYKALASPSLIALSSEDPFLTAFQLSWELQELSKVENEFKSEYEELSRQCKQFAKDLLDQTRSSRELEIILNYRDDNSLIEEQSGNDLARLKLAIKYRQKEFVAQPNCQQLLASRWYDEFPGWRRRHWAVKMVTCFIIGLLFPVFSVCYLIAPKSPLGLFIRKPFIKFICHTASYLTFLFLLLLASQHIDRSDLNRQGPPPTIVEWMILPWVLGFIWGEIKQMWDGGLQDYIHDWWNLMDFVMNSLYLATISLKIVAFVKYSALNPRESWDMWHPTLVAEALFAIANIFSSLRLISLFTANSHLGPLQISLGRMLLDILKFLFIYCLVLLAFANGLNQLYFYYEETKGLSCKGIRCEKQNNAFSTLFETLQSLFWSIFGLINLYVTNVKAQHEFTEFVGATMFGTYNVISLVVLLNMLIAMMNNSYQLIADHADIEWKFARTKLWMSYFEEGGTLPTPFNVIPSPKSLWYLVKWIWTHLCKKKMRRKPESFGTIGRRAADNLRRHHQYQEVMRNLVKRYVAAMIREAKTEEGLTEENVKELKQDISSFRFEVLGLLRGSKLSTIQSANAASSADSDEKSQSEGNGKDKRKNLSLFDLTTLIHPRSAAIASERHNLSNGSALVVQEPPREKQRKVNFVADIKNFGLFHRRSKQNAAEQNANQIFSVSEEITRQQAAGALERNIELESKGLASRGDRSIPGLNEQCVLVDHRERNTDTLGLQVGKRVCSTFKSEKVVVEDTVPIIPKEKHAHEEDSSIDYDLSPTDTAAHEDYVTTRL

[2] = NIH-3T3 fibroblast cytotoxicity, dose response, cytotoxicity control, cell-based, fluorescence, Alamar Blue, secondary assay (AID 2327); type: functional;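 further: NIH-3T3 mouse fibroblasts cultured with fluconazole at 8 µg/mL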
[3] = fluconazole-exposed Candida albicans growth modulators – fluorescence, retest, confirmation (AID 2467); type: functional, cell-based
[4] = microbe, parasite or virus in culture; type: functional; conditions: Mycobacterium tuberculosis
[5] = target: T2, Mannose-6-phosphate isomerase (Homo sapiens, UniProt P34949); test: MPI inhibition at elevated mannose 6-phosphate – biochemical, fluorescence intensity, high mannose 6-phosphate, primary screen (AID 1220)
T2 sequence (P34949 whole entry): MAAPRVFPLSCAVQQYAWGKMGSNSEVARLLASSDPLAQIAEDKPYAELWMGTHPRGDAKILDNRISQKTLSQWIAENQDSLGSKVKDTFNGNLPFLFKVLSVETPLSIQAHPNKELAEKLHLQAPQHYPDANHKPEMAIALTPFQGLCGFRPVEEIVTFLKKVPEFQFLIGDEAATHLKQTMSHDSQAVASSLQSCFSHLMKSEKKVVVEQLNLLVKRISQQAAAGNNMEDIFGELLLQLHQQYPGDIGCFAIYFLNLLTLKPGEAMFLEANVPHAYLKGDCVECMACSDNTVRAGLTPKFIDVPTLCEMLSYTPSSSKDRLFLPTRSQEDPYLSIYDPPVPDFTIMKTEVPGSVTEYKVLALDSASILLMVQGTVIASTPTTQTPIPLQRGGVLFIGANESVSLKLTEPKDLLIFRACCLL

[6] = tested on: H9c2; test: cells; type: functional, cell-based; conditions: Rattus norvegicus, H9c2, Myocardium;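 further: confirmatory concentration-response retest of ultra-high-throughput screening hits for modulation of myocardial damage; cell death induced by hydrogen peroxide oxidative stress; compound pretreatment for 60 min then peroxide exposure for 2 h; potency is for protecting the cells against peroxide damage rather than for killing them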
[7] = target: Voltage-dependent T-type calcium channel subunit alpha-1H (Homo sapiens, UniProt O95180); type: functional;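 further: channel activity triggered by adding a high calcium stimulation buffer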
[8] = target: T3, Cytochrome P450 1A2 (Homo sapiens, UniProt P05177);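 further: PubChem cytochrome P450 panel assay, CYP1A2 panel member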
T3 sequence (P05177 whole entry): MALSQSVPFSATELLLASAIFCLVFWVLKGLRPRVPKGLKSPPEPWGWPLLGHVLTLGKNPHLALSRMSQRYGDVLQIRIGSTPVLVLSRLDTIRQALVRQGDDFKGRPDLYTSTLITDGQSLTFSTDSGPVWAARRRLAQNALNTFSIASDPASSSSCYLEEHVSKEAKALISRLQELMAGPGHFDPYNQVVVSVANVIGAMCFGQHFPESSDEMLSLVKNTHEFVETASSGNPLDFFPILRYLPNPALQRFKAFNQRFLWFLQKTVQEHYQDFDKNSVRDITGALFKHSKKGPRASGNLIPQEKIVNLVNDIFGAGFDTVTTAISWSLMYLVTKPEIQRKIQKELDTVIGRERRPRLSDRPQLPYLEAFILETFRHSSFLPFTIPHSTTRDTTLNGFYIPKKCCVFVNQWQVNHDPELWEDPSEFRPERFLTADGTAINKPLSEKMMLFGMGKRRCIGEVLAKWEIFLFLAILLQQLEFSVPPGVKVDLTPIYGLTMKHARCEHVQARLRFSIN

[9] = target: Luciferin 4-monooxygenase (Photinus pyralis, UniProt P08659); test: inhibition of purified Photinus pyralis luciferase – biochemical, luminescence, dose response (AID 1891)
[10] = Luminescence Cell-Based Dose Confirmation HTS to Identify Inhibitors of Platelet Dense Granule Release. [Related pubchem assays: 1663 (Primary HTS), 1678 (Summary of Project)]; type: functional
[11] = luciferase reporter signal suppression in cells – H4 neuroglioma cells, luminescence, dose response (AID 1990); type: functional, cell-based
[12] = Luminescence Cell-Based Dose Response HTS to Identify Inhibitors of 5'UTR Stem-Loop Driven Prion Protein mRNA Translation in H4 Neuroglioblastoma Cells. [Related pubchem assays: 1827 (Project Summary), 1813 (Primary HTS)]; type: functional
[13] = alpha-synuclein stem-loop luciferase translation blockers – H4 neuroglioma cells, luminescence, confirmation (AID 1988); type: functional, cell-based
[14] = Trypanosoma cruzi growth suppression in host cells – NIH3T3 host cells, beta-gal luminescence, confirmation (AID 2044); type: functional, cell-based;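 further: intracellular parasites grown in NIH/3T3 mouse fibroblasts as host cells; luminescent beta-galactosidase reporter signal from transgenic T. cruzi replicating inside host cells; inhibitors lower the luminescence signal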
[15] = NIH3T3 cell viability loss – ATP luminescence, mouse fibroblasts, counter-screen, dose response (AID 2010); type: functional, cell-based;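 further: cells exposed to compound for about 90 hours before reading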
[16] = target: T4, Fatty acid synthase (Homo sapiens, UniProt P49327); test: inhibition of human FAS-TE enzyme activity – biochemical, endpoint fluorescence intensity, uHTS hits, dose response (AID 624327); type: functional;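 further: fluorescence from hydrolysis of an O-methyl fluorescein acyl ester substrate by the enzyme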
[17] = target: T4, Fatty acid synthase; test: inhibition of human FAS-TE enzyme activity – biochemical, kinetic fluorescence intensity, dose response (AID 624326); type: functional;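 further: rate of fluorescence rise from hydrolysis of a fluorogenic O-methyl fluorescein ester substrate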
[18] = target: T5, Aminopeptidase N (Plasmodium falciparum FcB1/Columbia, UniProt O96935); test: malaria alanyl aminopeptidase activity blockers – biochemical, fluorogenic H-Leu-NHMec substrate, 1536-well (AID 1445); set-up: species or system Plasmodium falciparum 3D7, 3D7
T5 sequence (O96935 whole entry): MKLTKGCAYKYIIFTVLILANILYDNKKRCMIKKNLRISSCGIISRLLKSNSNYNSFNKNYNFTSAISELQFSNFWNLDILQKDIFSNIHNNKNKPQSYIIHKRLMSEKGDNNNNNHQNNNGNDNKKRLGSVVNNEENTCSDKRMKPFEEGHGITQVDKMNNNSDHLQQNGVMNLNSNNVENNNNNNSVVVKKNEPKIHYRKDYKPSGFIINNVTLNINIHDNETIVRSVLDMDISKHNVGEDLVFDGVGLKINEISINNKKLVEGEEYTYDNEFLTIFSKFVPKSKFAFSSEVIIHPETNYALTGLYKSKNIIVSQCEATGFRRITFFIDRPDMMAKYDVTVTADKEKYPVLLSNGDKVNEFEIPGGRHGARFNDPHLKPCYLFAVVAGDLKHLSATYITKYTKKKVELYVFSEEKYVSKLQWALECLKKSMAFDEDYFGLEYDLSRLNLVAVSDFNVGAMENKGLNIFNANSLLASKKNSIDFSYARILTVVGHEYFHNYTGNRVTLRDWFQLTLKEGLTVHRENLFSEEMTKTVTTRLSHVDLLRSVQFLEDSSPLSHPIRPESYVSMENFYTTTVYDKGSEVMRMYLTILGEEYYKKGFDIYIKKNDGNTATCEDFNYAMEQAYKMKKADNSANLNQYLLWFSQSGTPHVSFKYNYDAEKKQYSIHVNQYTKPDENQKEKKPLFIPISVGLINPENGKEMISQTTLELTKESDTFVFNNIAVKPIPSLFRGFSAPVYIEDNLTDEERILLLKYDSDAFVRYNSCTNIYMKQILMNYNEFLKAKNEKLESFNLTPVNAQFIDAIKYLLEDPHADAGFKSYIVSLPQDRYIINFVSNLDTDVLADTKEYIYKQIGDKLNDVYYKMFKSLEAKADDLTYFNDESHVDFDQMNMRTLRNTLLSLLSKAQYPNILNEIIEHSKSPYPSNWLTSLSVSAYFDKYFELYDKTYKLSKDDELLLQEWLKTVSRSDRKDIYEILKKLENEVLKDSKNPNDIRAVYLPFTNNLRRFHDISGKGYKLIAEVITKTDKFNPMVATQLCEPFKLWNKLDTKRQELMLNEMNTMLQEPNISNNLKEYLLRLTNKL

[19] = target: Paired box protein Pax-8 (Homo sapiens, UniProt Q06710); test: PAX8 transcriptional activity inhibition in RMG-I – RMG-I cells, luciferase, cherry-pick, dose response (AID 687027); type: functional, cell-based;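 further: luciferase reporter driven by Pax8 target thyroperoxidase promoter measured by SteadyGlo luminescence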
[20] = target: Cytochrome P450 2D6 (Homo sapiens, UniProt P10635);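 further: CYP2D6 member of a cytochrome P450 panel assay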
[21] = viability of uninfected HEp-2 cells – cell-based, HTS, cytotoxicity control for RSV inhibitor project, dose response (AID 2410); type: functional; conditions: human respiratory syncytial virus
[22] = tested on: BJ; test: BJ-TERT fibroblast viability loss – cell-based, RAS-independent, luminescence, dose response (AID 1933); type: functional; conditions: Homo sapiens
[23] = tested on: BJ; test: cells; type: functional, cell-based; conditions: Homo sapiens
[24] = tested on: BJ; test: BJ-TERT-LT-ST fibroblast viability loss – cell-based, RAS-independent, luminescence, dose response (AID 1935); type: functional; conditions: Homo sapiens;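 further: BJ fibroblasts immortalized with TERT plus LT and ST oncogenes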
[25] = DRD fibroblast viability loss – cell-based, non-viral oncogenic, luminescence, dose response (AID 1934); type: functional; conditions: Homo sapiens

T4 sequence (P49327 whole entry): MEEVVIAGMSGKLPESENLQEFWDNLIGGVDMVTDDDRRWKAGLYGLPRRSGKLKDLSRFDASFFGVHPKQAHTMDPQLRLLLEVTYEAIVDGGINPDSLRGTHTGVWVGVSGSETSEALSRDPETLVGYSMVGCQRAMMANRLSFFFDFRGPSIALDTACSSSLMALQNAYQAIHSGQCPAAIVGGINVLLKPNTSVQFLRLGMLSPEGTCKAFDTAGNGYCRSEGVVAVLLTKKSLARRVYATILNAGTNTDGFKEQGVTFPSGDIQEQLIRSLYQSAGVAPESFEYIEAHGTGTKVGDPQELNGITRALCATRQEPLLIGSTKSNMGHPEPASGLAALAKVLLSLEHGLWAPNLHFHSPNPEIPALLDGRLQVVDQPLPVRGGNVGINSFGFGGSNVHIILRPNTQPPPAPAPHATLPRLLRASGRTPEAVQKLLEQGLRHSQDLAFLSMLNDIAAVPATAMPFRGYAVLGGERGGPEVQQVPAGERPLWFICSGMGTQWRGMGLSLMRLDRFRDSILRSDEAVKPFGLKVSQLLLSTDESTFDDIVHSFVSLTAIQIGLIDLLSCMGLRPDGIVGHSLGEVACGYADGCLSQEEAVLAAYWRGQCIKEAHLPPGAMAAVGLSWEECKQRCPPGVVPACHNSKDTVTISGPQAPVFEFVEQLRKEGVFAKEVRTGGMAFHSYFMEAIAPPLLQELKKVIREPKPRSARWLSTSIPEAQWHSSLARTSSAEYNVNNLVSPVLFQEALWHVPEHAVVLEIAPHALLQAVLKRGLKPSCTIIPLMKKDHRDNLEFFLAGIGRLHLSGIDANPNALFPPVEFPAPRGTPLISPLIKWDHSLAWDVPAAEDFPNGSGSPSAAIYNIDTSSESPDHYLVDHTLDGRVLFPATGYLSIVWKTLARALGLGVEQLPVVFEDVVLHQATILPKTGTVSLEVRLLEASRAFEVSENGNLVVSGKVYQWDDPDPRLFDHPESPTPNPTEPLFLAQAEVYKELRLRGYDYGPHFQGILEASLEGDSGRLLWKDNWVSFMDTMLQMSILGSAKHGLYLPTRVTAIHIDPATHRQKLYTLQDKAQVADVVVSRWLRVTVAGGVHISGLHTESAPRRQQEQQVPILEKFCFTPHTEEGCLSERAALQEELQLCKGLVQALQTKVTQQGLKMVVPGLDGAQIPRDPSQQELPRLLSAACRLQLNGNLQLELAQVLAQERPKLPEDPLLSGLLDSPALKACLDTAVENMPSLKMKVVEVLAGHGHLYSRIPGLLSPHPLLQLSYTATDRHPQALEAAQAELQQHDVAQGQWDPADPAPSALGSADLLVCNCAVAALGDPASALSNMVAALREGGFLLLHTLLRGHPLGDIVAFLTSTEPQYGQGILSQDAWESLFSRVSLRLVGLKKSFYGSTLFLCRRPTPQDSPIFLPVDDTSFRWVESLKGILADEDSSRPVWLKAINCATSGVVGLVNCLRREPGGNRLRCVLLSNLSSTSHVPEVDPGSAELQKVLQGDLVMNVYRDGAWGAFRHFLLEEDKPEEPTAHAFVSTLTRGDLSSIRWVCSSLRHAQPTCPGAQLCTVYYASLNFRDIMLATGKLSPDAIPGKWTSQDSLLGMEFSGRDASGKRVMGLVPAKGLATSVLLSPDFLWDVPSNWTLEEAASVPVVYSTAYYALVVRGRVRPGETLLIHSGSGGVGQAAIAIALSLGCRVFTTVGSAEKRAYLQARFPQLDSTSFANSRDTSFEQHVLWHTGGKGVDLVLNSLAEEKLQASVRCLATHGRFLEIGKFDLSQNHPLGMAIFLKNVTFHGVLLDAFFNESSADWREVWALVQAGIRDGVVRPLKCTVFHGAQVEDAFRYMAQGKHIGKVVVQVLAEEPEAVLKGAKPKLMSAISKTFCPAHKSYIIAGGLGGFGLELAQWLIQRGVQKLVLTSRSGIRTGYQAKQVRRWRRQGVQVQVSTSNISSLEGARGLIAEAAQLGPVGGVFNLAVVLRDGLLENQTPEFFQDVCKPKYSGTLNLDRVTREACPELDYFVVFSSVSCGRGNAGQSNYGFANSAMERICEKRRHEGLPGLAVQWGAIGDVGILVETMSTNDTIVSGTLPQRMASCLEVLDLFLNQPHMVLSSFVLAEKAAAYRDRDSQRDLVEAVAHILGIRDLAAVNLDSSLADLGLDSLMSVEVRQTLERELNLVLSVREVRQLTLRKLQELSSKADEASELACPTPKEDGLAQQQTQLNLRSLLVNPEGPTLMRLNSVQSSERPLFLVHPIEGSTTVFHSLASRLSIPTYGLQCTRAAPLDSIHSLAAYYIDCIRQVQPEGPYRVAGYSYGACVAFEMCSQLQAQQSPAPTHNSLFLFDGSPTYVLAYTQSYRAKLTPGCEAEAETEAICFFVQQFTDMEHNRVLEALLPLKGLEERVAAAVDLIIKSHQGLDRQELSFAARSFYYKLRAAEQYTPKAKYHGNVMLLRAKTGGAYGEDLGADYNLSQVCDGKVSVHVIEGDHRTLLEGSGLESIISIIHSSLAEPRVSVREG
Chain of Voltage-dependent T-type calcium channel subunit alpha-1H (O95180 whole entry): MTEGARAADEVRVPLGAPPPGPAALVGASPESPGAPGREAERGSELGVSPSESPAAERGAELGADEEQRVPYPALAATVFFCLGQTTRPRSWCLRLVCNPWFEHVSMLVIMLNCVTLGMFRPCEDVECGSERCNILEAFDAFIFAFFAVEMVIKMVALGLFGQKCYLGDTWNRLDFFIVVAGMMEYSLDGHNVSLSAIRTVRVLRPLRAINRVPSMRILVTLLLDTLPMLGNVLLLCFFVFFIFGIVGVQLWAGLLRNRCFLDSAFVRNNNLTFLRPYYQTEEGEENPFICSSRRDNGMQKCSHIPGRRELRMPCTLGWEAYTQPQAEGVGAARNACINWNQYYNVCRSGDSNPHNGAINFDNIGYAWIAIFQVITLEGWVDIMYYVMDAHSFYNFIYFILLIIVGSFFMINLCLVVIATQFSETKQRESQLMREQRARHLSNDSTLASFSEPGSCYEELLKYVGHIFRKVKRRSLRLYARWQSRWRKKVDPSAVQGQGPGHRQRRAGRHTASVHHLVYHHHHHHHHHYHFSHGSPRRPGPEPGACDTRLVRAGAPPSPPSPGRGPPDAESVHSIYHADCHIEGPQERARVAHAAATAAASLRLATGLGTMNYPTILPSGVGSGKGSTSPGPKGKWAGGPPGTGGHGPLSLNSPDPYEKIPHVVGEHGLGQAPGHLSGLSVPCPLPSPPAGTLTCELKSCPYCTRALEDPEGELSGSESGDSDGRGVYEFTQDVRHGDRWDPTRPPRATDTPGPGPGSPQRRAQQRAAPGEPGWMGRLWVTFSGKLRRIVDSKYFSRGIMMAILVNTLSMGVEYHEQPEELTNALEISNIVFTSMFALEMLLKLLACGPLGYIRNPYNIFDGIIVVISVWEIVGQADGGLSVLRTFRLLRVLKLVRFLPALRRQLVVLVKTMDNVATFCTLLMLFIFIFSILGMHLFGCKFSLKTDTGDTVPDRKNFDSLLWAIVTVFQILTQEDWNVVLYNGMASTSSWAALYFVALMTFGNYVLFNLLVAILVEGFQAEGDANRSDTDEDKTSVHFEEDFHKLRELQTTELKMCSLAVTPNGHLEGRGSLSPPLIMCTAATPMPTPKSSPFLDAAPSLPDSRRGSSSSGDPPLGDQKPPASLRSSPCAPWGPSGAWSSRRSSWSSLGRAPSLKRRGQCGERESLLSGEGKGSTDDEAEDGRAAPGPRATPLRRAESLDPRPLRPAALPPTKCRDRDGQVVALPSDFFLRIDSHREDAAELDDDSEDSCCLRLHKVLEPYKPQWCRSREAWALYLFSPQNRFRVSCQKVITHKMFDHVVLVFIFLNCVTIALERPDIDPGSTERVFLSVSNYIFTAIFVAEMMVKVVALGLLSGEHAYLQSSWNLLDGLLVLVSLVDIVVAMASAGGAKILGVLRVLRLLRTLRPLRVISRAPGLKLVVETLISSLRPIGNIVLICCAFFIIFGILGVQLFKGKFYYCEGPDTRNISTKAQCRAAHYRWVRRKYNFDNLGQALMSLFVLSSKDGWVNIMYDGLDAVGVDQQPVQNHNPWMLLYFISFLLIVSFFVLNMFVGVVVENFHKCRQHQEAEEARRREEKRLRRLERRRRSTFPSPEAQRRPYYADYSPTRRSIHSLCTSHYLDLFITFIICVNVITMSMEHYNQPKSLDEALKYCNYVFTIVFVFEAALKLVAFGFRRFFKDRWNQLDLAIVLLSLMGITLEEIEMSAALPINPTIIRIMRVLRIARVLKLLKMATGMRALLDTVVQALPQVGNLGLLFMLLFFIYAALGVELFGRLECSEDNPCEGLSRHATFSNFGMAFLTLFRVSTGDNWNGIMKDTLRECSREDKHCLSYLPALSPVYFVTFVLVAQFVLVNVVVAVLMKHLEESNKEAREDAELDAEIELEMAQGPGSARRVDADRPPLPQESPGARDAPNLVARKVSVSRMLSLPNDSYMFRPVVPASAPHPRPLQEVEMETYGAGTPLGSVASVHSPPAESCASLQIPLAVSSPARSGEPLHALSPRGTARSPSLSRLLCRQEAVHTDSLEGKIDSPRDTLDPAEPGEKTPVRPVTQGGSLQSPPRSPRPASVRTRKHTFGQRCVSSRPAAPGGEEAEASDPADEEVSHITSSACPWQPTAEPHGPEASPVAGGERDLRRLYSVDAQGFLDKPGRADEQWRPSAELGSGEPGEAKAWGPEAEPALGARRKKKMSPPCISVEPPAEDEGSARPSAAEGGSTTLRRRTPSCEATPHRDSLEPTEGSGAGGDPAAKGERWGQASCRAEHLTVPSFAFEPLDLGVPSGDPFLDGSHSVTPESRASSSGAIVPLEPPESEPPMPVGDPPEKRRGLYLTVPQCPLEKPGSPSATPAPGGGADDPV

O=C(CN1CCCCCC1)N1c2ccccc2Sc2ccccc21
EC50 [1]: 1.68 µM (active)

Cc1ccc(NCc2ccc(O)c3ncccc23)cc1C
EC50 [2]: > 160 µM (inconclusive)
EC50 [3]: > 38 µM (not active)
CC50 [4]: 33.9 µM (active)
IC50 [5]: > 50 µM (not active)
IC50 [6]: > 79 µM (inactive)

Cc1snc(S(=O)(=O)/C(C#N)=N/Nc2cccc(C(F)(F)F)c2)c1C#N
EC50 [7]: 7.53 µM (active)

COc1ccc(CNc2nc3ccccc3n2Cc2ccccc2)cc1OC
EC50 [7]: 7.3 µM (active)
AC50 [8]: 22.4 µM (inconclusive)

c1ccc(Cn2c(NCc3ccco3)nc3ccccc32)cc1
EC50 [1]: 0.596 µM (active)

COc1ccc(-c2nc(C[S+]([O-])CC(=O)NC3CCCCC3C)c(C)o2)cc1 (stereo not given)
EC50 [9]: > 112 µM (not active)
EC50 [10]: > 112 µM (not active)

Cc1cc(C)c(NC(=O)C(C)c2cccc(C(=O)c3ccccc3)c2)c(C)c1 (stereo not given)
EC50 [7]: 3.26 µM (active)

CS(=O)(=O)N1CCc2cc(-c3csc(NC(=O)Cc4ccccc4)n3)ccc21
EC50 [11]: > 120 µM (not active)
EC50 [12]: 20.9 µM (active)
EC50 [13]: > 120 µM (not active)
EC50 [14]: 1.08 µM (active)
EC50 [15]: > 60 µM (not active)
IC50 [16]: 8.79 µM (active)
IC50 [17]: 5.12 µM (active)

COc1ccc(CN(C(=O)c2snc(C(N)=O)c2N)C(CC(C)C)C(=O)NC2CCCCC2)cc1 (stereo not given)
EC50 [1]: 1.33 µM (active)

CC1(C)CC(=O)c2c(oc3ccc(NS(=O)(=O)c4ccc(C(=O)O)cc4)cc23)C1
IC50 [18]: 26 µM (active)

O=C(NCCN1C(=O)S/C(=C\c2ccc(OC(F)F)cc2)C1=O)c1cnccn1
EC50 [11]: > 120 µM (not active)
EC50 [12]: 26.3 µM (active)
EC50 [13]: > 120 µM (not active)
AC50 [19]: 15.5 µM (active)

COc1cccc(N(C(=O)Cn2nnc(-c3ccc(C)cc3)n2)C(C(=O)NC(C)(C)C)c2c[nH]c3ccccc23)c1 (stereo not given)
EC50 [7]: 8.67 µM (active)
AC50 [20]: 20 µM (inconclusive)

Cc1ccccc1C(=O)NC1CCN(C(=O)N2CCOCC2)CC1
EC50 [9]: > 112 µM (not active)
EC50 [10]: > 112 µM (not active)

CCOC(=O)N1CCN(Cc2cc(=O)oc3cc4c(cc23)CCC4)CC1
EC50 [9]: > 112 µM (not active)
EC50 [10]: > 112 µM (not active)

CC(C)c1ccc(NC(S)=NC2CCN(Cc3ccccc3)CC2)cc1
CC50 [21]: 20.6 µM (active)
EC50 [9]: > 112 µM (not active)
EC50 [10]: > 112 µM (not active)

O=C(N/C(=C/C=C\c1ccccc1)C(=O)N1CCOCC1)c1ccc(Br)cc1
EC50 [11]: > 120 µM (not active)
EC50 [12]: > 120 µM (not active)
EC50 [13]: > 120 µM (not active)
IC50 [16]: 7.92 µM (active)
IC50 [17]: 7.63 µM (active)

CCOc1ccccc1CNC(=O)C1CCN(c2nnc(C)c3c(C)n(-c4ccc(C)cc4)nc23)CC1
EC50 [11]: 8.11 µM (active)
EC50 [12]: 12.6 µM (active)
EC50 [13]: 9.02 µM (active)
EC50 [14]: 1.45 µM (active)
EC50 [15]: 9.4 µM (active)

COCCNc1nc(N)c([N+](=O)[O-])c(NC2CCCCC2)n1
EC50 [11]: 16.2 µM (active)
EC50 [12]: > 120 µM (not active)
EC50 [13]: 77.7 µM (active)

Cc1ccc(-c2csc3ncnc(SCc4ccc(C(=O)O)cc4)c23)cc1
IC50 [18]: 44.6 µM (active)

OC[C@H]1O[C@@H](n2cnc3c(NCCc4ccccc4)ncnc32)[C@H](O)[C@@H]1O
EC50 [22]: 15.2 µM (inconclusive)
EC50 [23]: 35.4 µM (active)
EC50 [9]: > 112 µM (not active)
EC50 [10]: 0.893 µM (active)
EC50 [24]: > 150 µM (not active)
EC50 [25]: 18.9 µM (active)
